Assay [1] has as its target KDR kinase (Homo sapiens, UniProt P35968). As to the kind of experiment: KDR AlphaScreen assay. To be noted: KDR IC50 (μM). (In general: Alpha assays give light when donor and acceptor beads are brought close together.)
Assay [2] has as its target T1, human full length PKCE enzyme (Homo sapiens, UniProt Q02156).
T1 construct: human full length PKCE enzyme purchased from InVitrogen; purchased InVitrogen
T1 sequence (Q02156 1-737): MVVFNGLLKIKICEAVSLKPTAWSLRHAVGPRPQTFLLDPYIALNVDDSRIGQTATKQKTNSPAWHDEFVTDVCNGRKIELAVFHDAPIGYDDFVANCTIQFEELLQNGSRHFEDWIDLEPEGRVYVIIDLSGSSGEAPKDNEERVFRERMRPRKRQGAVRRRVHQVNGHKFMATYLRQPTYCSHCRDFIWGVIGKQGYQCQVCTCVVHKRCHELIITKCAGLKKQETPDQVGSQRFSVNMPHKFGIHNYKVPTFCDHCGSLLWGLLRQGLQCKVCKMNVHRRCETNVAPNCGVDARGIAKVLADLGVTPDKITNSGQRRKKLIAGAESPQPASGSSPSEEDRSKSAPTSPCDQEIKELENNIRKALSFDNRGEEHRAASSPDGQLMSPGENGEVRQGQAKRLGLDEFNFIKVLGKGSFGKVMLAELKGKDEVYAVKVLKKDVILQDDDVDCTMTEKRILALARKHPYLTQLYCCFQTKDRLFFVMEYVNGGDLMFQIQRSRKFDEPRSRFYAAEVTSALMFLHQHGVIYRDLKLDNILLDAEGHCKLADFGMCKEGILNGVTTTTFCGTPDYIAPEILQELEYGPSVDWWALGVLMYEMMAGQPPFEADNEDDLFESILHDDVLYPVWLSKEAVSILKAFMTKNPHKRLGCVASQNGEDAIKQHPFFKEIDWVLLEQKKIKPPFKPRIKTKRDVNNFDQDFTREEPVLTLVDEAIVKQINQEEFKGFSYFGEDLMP
Put plainly: In vitro PKCE assay. In kind it is biochemical. Particulars: 10 nM enzyme, 40 uM peptide substrate, 20 uM ATP, KinaseGlo Plus readout; read-out: PKCε IC50. (Kinase-Glo measures the ATP left after a reaction by luminescence.)

Assay [3] concerns the target Pim3 kinase (Homo sapiens, UniProt Q86V86). Put plainly: Pim3 ATP depletion assay. In kind it is biochemical.
Assay [4] has as its target Pim2 kinase (Homo sapiens, UniProt Q9P1W9). Put plainly: Pim2 ATP depletion assay.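 Also: Luciferase-based luminescent readout of ATP remaining after PIM2 phosphorylates a BAD peptide, final 5 nM enzyme, 4 µM ATP, 10 µM peptide, 2.5% DMSO, run to roughly half ATP consumption.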 Format: biochemical.
Assay [5] concerns HEL 92.1.7 cells. As to the kind of experiment: Cell proliferation assay (CellTiter-Glo), HEL 92.1.7. In kind it is cell-based. To be noted: Homo sapiens. A digest of the protocol:
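Cells in RPMI1640 with 10% FBS were seeded at 1000 cells/well and exposed to compound dilutions from DMSO stocks for 3 days at 37 °C. Viability was read by CellTiter-Glo luminescence. EC50 was derived from percent inhibition relative to DMSO-only and control-compound wells.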
Background: ATP-based viability assays read luminescence as a measure of living cells.

In assay [6] the target is Pim1 kinase (Homo sapiens, UniProt P11309). Put plainly: Pim1 ATP depletion assay.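 Also: Luciferase-luciferin luminescence readout of residual ATP after PIM1 transfers phosphate to a peptide substrate, 40 µM ATP added, reaction run to roughly half ATP consumption.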 In kind it is biochemical.
Pim1 kinase, sequence (P11309 whole entry): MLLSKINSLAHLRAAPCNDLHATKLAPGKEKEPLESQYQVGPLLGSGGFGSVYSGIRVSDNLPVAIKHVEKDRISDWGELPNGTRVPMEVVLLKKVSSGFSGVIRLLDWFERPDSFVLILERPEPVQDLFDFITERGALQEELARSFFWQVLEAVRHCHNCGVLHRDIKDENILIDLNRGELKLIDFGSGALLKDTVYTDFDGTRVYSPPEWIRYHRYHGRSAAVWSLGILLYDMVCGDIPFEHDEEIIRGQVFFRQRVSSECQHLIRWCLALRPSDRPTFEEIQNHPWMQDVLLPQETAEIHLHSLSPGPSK
The mark [7] stands for this setting: Pim1 ATP depletion assay, read-out: IC50 (μM) PIM1.

Read-outs that look alike come from different tables or passages of the source.

Pim2 kinase, sequence (Q9P1W9 whole entry): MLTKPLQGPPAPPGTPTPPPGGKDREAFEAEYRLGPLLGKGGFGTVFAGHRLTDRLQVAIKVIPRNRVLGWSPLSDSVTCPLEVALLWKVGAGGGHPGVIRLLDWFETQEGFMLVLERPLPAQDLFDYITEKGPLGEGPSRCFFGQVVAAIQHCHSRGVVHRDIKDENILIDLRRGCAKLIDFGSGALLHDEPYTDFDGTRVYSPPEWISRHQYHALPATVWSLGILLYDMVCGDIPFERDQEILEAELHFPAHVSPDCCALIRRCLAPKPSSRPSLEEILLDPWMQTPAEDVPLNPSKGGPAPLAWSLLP
KDR kinase, sequence (P35968 20-1356): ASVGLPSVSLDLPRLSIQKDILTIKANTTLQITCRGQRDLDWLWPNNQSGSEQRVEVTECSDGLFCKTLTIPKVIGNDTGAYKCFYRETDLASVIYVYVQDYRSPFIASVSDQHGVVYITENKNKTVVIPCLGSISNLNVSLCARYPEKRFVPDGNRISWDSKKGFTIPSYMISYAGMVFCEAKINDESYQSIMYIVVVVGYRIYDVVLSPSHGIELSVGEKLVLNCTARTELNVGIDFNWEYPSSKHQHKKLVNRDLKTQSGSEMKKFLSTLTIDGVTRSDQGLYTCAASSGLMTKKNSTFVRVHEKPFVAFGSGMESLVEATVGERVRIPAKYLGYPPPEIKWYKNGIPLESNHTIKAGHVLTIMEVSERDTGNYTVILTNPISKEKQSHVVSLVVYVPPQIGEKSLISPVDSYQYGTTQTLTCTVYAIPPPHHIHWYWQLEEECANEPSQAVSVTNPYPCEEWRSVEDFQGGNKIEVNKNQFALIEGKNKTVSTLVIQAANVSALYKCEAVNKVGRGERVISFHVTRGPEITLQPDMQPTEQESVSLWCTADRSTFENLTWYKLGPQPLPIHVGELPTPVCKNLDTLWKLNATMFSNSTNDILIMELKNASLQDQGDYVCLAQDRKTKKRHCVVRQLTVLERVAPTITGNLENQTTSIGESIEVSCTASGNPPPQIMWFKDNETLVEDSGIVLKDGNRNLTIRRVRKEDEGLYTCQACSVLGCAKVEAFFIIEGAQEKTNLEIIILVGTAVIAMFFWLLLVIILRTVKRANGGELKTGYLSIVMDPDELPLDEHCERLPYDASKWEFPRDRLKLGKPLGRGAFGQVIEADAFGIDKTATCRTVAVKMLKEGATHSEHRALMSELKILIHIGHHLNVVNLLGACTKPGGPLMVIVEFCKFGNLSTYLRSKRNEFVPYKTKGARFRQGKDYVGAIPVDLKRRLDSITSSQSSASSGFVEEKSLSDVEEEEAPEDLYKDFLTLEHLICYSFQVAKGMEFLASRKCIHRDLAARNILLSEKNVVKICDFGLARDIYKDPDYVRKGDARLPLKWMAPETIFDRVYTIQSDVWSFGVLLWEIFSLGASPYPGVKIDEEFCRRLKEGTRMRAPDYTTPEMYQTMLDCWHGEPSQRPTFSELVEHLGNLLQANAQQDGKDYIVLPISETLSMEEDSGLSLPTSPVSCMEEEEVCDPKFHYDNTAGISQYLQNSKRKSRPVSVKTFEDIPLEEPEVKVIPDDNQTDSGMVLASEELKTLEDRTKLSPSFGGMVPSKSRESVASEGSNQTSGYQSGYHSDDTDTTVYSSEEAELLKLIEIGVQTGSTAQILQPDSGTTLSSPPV

What is called IC50 is the concentration that inhibits the measured activity by half. One may read the EC50 as the concentration needed to bring the measured effect to its halfway point. For `Nc1nccnc1C(=O)Nc1cnccc1N1CCCCC1` [Example 123, 3-amino-N-(4-piperidin-1-yl-pyridin-3-yl)pyrazine-2-carbox-amide], the IC50 was 1 to 10 µM in assay [1]; below 1000 nM in assay [2]; below 1 µM in assay [3] (read-out: IC50 (μM) PIM3); 1 to 10 µM in assay [4] (read-out: IC50 (μM) PIM2); below 1 µM in assay [6]. For the same compound, the concentration for a half-maximal effect (EC50) in assay [5] (read-out: EC50 (μM) HEL 92.1.7) was below 1 µM.
`Nc1nccnc1C(=O)Nc1[nH]c(=O)ncc1N1CCCCC1` [Example 130, 3-amino-N-(2-oxo-5-piperidin-1-yl-2,3-dihydropyrimidin-4-yl)-pyrazine-2-carboxamide]: the concentration for half-maximal inhibition (IC50) in assay [1] was 1 to 10 µM; in assay [2], below 1000 nM; in assay [3] (read-out: IC50 (μM) PIM3), below 1 µM; in assay [4] (read-out: IC50 (μM) PIM2), below 1 µM; in assay [6] (setting [7]) it was below 1 µM. For the same compound, in assay [5] (read-out: EC50 (μM) HEL 92.1.7), the EC50 was in the range of 5 to 10 µM.
In the case of `Nc1nc(N)c(C(=O)Nc2[nH]c(=O)ncc2N2CCCCC2)nc1Cl` [Example 131, 3,5-diamino-6-chloro-N-(2-oxo-5-piperidin-1-yl-2,3-dihydro-pyrimidin-4-yl)pyrazine-2-carboxamide], the IC50 in assay [1] is below 1 µM; in assay [2] it was above 25000 nM; in assay [3] (read-out: IC50 (μM) PIM3) it was below 1 µM; in assay [4] (read-out: IC50 (μM) PIM2), below 1 µM; in assay [6] (setting [7]), below 1 µM. The EC50 in assay [5] (read-out: EC50 (μM) HEL 92.1.7) is below 1 µM.
As to `Nc1nc(N)c(C(=O)Nc2[nH]c(=O)ncc2N2CCC(C(F)(F)F)CC2)nc1Cl` [Example 159, 3,5-diamino-6-chloro-N-{2-oxo-5-[4-(trifluoromethyl)piperidin-1-yl]-2,3-dihydropyrimidin-4-yl}pyrazine-2-carboxamide], the IC50 was below 1 µM in assay [1]; above 25000 nM in assay [2]; below 1 µM in assay [3] (read-out: IC50 (μM) PIM3); below 1 µM in assay [4] (read-out: IC50 (μM) PIM2); below 1 µM in assay [6] (setting [7]). Also, in assay [5] (read-out: EC50 (μM) HEL 92.1.7), the EC50 was 5 to 10 µM.
As for `Nc1nc(N)c(C(=O)Nc2[nH]c(=O)ncc2N2CCC(F)(F)CC2)nc1Cl` [Example 161, 3,5-diamino-6-chloro-N-[5-(4,4-difluoropiperidin-1-yl)-2-oxo-2,3-dihydropyrimidin-4-yl]-pyrazine-2-carboxamide], the 50% inhibitory concentration (IC50) in assay [1] is below 1 µM; in assay [2], above 25000 nM; in assay [3] (read-out: IC50 (μM) PIM3), below 1 µM; in assay [4] (read-out: IC50 (μM) PIM2), below 1 µM; in assay [6] (setting [7]), below 1 µM. In addition, the half-maximal effective concentration (EC50) in assay [5] (read-out: EC50 (μM) HEL 92.1.7) was above 10 µM.
In the case of `Nc1cccnc1C(=O)Nc1ccncc1N1CCCC(N)C1` (centres unmarked) [Example 174, 3-amino-N-[3-(3-aminopiperidin-1-yl)pyridin-4-yl]pyridine-2-carboxamide], the IC50 was above 25 µM in assay [1]; 1000 to 10000 nM in assay [2]; below 1 µM in assay [3] (read-out: IC50 (μM) PIM3); below 1 µM in assay [4] (read-out: IC50 (μM) PIM2); below 1 µM in assay [6] (setting [7]). Moreover, in assay [5] (read-out: EC50 (μM) HEL 92.1.7), the EC50 is above 10 µM.
Regarding `Nc1cccnc1C(=O)Nc1cnccc1N1CCC[C@H](N)C1` [Example 175, 3-amino-N-{4-[(3S)-3-amino-piperidin-1-yl]pyridin-3-yl}-pyridine-2-carboxamide], the IC50 in assay [1] is above 25 µM; in assay [2], 1000 to 10000 nM; in assay [3] (read-out: IC50 (μM) PIM3), below 1 µM; in assay [4] (read-out: IC50 (μM) PIM2), below 1 µM; in assay [6], below 1 µM. Moreover, the EC50 in assay [5] (read-out: EC50 (μM) HEL 92.1.7) is above 10 µM.
Turning to `NCC1CCCN(c2ccncc2NC(=O)c2nc(Cl)c(N)nc2N)C1` (centres unmarked) [Example 182, 3,5-diamino-N-{4-[3-(amino-methyl)piperidin-1-yl]pyridin-3-yl}-6-chloropyrazine-2-carboxamide], the concentration for half-maximal inhibition (IC50) in assay [1] was 1 to 10 µM; in assay [2] it was 1000 to 10000 nM; in assay [3] (read-out: IC50 (μM) PIM3), below 1 µM; in assay [4] (read-out: IC50 (μM) PIM2), below 1 µM; in assay [6] (setting [7]) it was below 1 µM. Besides, the EC50 in assay [5] (read-out: EC50 (μM) HEL 92.1.7) was below 1 µM.
`Nc1ncc(-c2ccccc2F)nc1C(=O)Nc1[nH]c(=O)ncc1N1CCCCC1` [Example 592, 3-amino-6-(2-fluoro-phenyl)-pyrazine-2-carboxylic acid (2-oxo-5-piperidin-1-yl-2,3-dihydro-pyrimidin-4-yl)-amide]: the half-maximal inhibitory concentration (IC50) in assay [2] was 1000 to 10000 nM; in assay [3] (read-out: PIM3 IC50) it was below 1 µM; in assay [4] (read-out: PIM2 IC50) it was below 1 µM; in assay [6] (Pim1 ATP depletion assay, read-out: PIM1 IC50), below 1 µM. The EC50 in assay [5] (read-out: HEL 92.1.7 EC50) is below 1 µM.

The record behind these values is patent publication US20140249135A1, “PIM KINASE INHIBITORS AND METHODS OF THEIR USE” (NOVARTIS AG, priority 2007, published 2014).
